Reference: EP4371976B1, “IONIZABLE LIPIDS AND LIPID NANOPARTICLES CONTAINING THEREOF” (Certest Biotec, S.L., priority 2022, dated 2024)

Tests used:
[1] = RNA encapsulation efficiency of LNPs by Quant-IT Ribogreen; assay type: physicochemical; conditions: for Encaps. efficiency (%): LNPs with luciferase mRNA, ionizable lipid:non-cationic lipid:sterol:PEG-modified lipid 50:10:38.5:1.5, percentage of RNA entrapped in the LNP; for Encaps. efficiency: Table 8, LNP 50:10:38.5:1.5, luciferase mRNA
Outline: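 Ribogreen dye assay per manufacturer quantified encapsulated mRNA. Particles were made by adding mRNA in water to the ethanol phase, then 1:1 Tris dilution and overnight dialysis into Tris/15% sucrose; final mRNA set to 100 µg/ml.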

Female BALB/c mice = experiment: Firefly luciferase expression (total flux, IVIS imaging) in mice after injection of mRNA-loaded LNPs; assay type: in vivo; conditions: for Total Flux: Table 8, mice, intramuscular, 5 µg luciferase mRNA in 50 µl, LNP 50:10:38.5:1.5; for protein expression in mice (transfection results): Figure 1 legend, LNPs containing RNA
Experimental: For in vivo administration, mRNA comprising in the 5' to 3' direction a sequence encoding for luciferase of SEQ ID NO:1, was encapsulated into LNPs following the procedure described in Hassett, K. J. et al., "Optimization of Lipid Nanoparticles for Intramuscular Administration of mRNA Vaccines", 2019, Mol. Ther. Nucleic Acid, vol. 15, pp. 1-11. Briefly, the purified mRNAs were first diluted in sodium citrate buffer at pH=4 at a final concentration of 266 µg/ml. Separately, a mixture of the ionizable lipid of the invention:DSPC (Merk 850365P):cholesterol (Sigma C3045):DMG-PEG2000 (Cayman 33945-1) were dissolved into ethanol at the respective molar percentages of 50:10:38.5:1.5, and with a lipid-nitrogen-to-phosphate ratio (N:P) ratio of 5,5:1.
The mRNA aqueous solution was then carefully added to the ethanol solution, and the resulted solution was homogenized by pipetting up and down for 4-5 times. The resulting LNPs were immediately diluted 1:1 with Tris buffer and dialyzed overnight against Tris buffer containing 15% sucrose. The resulting LNP solution was then collected, and the encapsulated mRNA was assessed by Quant-IT® Ribogreen (Invitrogen R11490) following the manufacturer's instructions.
Female BALB/c mice (Charles River Laboratories), 8-10-week-old, weighting 18-23 g, were acclimatized to new conditions upon arrival to experimental facilities for 3-7 days. Housing conditions were room temperature 20-24 °C, humidity 50-70 %, and light intensity 60 lux with a light-dark cycle of 12 hours.
For Firefly Luciferase activity measurement in mice, LNPs produced as indicated above (ionizable lipid:helper lipid: sterol:PEG-modified lipid → 50:10:38.5:1.5) and containing 5 µg of the indicated mRNA in 50 µl final volume, were injected intramuscularly.
From 4 to 72 hours after RNA-LPN inoculation mice were anaesthetized by inhalation with 4% of isoflurane using a vaporizer. The maintenance of the anaesthesia was performed at 1.5% of isoflurane. Then, D-luciferin (Quimigen, 12507) was injected intraperitoneally at 150 mg/kg, normally ~200 µL of the stock at 15 mg/mL in PBS for a 20 g mouse. Luciferase images were acquired 10 minutes after luciferin inoculation using the IVIS Lumina XRMS Imaging System following manufacturer's instructions.

[2] = Size distribution, polydispersity and Z-potential of LNPs by dynamic light scattering (Malvern Zetasizer); assay type: physicochemical; conditions: LNPs, standard formulation 50:10:38.5:1.5; DLS
Experimental: The LNP solution was then adjusted to a final concentration of mRNA of 100 µg/ml. Size distribution, polydispersity and Z-potential were measured by dynamic light scattering (DLS) using Malvern Zetasizer Advance Lab Blue Label. RNA encapsulation was assessed by Quant-IT® Ribogreen following the manufacturer's instructions.

Row | SMILES | Encaps. efficiency (%) [1] [%] | Encaps. efficiency [1] [%] | Total Flux (Female BALB/c mice) [p·s^-1] | P.D.I. [2] | Particle size/ Ø (nm) [2] [nm] | Z Potential (± D.E.) [mV] [2] [mV] | protein expression in mice (transfection results) (Female BALB/c mice)
1 | CCCCCCCCCCCCCOC(=O)CCSCCC(C(=O)NCCCn1ccnc1)C(=O)OC(CCCCCCCC)CCCCCCCC (centres unmarked) [VC-LC-0362] | 73.55 | 73.5 | 3.31E+07 | 0.14 | 121.1 | -13.94 | 
2 | CCCCCCCCCCCCC(CCCCCCCCCC)COC(=O)CCSCC(CC(=O)NCCCN1CCOCC1)C(=O)OC(CCCCCCCC)CCCCCCCC (centres unmarked) [VC-LC-0553] | 36.11 |  |  | 0.22 | 196.2 | -8.66 | good transfection results
3 | CCCCCCCCC(CCCCCC)COC(=O)CCSCCC(C(=O)NC1CCN(C)CC1)C(=O)OC(CCCCCCCC)CCCCCCCC (centres unmarked) [VC-LC-0439] | 91.14 | 91.1 | 2.39E+07 | 0.1 | 144.8 | -6.48 | 
4 | CCCCCCCCCCCCCCCCCCOC(=O)CCSCCC(NC(=O)C(CCCCCC)CCCCCCCC)C(=O)NCCCn1ccnc1 (centres unmarked) [VC-LC-0262] | 33.79 | 33.79 | 7.5E+07 | 0.11 | 143.8 | -10.53 | 
5 | CCCCCCCCCCCCC(CCCCCCCCCC)COC(=O)CCSCCC(NC(=O)C(CCCCCCCC)CCCCCCCCCC)C(=O)NCC1CCN(C)CC1 (centres unmarked) [VC-LC-0521] | 52.01 | 52.01 | 1.1E+08 | 0.071 | 153.1 | -4.50 | 
6 | CCCCCCCCC(CCCCCCCC)OC(=O)C(CSCCC(=O)OCCCCCC(C)C)CC(=O)NCCCn1ccnc1 (centres unmarked) [VC-LC-0302] | 40.58 | 40.6 | 7.9E+07 | 0.13 | 112.3 | -9.30 | 
7 | CCCCCCCCCCCCCOC(=O)CCSCCC(NC(=O)C(CCCCCC)CCCCCCCC)C(=O)NCC1CCN(C)CC1 (centres unmarked) [VC-LC-0490] | 97.16 | 97.2 | 1.7E+07 | 0.18 | 136.1 | 0.83 | 
8 | CCCCCCCCCCCCCCCCCCOC(=O)CCSCC(CC(=O)NCCCN1CCOCC1)C(=O)OC(CCCCCCCC)CCCCCCCC (centres unmarked) [VC-LC-0546] | 39.62 | 39.6 | 2.54E+07 | 0.14 | 164.2 | -10.43 | 
9 | CCCCCCCC/C=C\CCCCCCCC(=O)NC(CCSCCC(=O)OCC(CCCCCCCCCC)CCCCCCCCCCCC)C(=O)NCCCN1CCOCC1 (centres unmarked) [VC-LC-0353] | 57.26 | 57.26 | 5.2E+07 | 0.1 | 175.8 | -8.97 | good transfection results
10 | CCCCCCCC/C=C\CCCCCCCC(=O)NC(CCSCCC(=O)OCCCCCCCCCCCCC)C(=O)NCCCN(CCO)CCO (centres unmarked) [VC-LC-0289] | 89.26 | 89.3 | 2.329E+07 | 0.2 | 207.1 | -0.34 | good transfection results
11 | CCCCCCCC/C=C\CCCCCCCCOC(=O)CCSCCC(NC(=O)CCCCCCC/C=C\CCCCCCCC)C(=O)NCCCN1CCOCC1 (centres unmarked) [VC-LC-0355] | 81.58 | 81.6 | 2.39E+07 | 0.3 | 242.2 | -4.71 | good transfection results
12 | CCCCCCCCCCCCCCCCCCOC(=O)CCSCCC(NC(=O)C(CCCCCC)CCCCCCCC)C(=O)NC1CCN(C)CC1 (centres unmarked) [VC-LC-0215] | 58.34 | 58.3 | 4.23E+07 |  | 143.5 | -13.70 | 
13 | CCCCCCCCCCCCCCOC(=O)CCSCCC(C(=O)NCCCn1ccnc1)C(=O)OC(CCCCCCCC)CCCCCCCC (centres unmarked) [VC-LC-0367] | 47.47 | 47.5 | 3.16E+07 | 0.19 | 134.6 | -15.48 | 
14 | CCCCCCCC/C=C\CCCCCCCC(=O)NC(CCSCCC(=O)OCC(CCCCCCCCCC)CCCCCCCCCCCC)C(=O)NC1CCN(C)CC1 (centres unmarked) [VC-LC-0356] | 68.27 | 68.3 | 3.83E+07 | 0.09 | 218.9 | -10.96 | 
15 | CCCCCCCCCCCCCCCCCC(=O)NC(CCSCCC(=O)OCC(CCCCCCCCCC)CCCCCCCCCCCC)C(=O)NCCCN1CCOCC1 (centres unmarked) [VC-LC-0389] | 76.40 |  |  | 0.26 | 218 | -9.68 | good transfection results
16 | CCCCCCCCCCC(CCCCCCCC)C(=O)NC(CCSCCC(=O)OCC(CCCCCC)CCCCCCCC)C(=O)NC1CCN(C)CC1 (centres unmarked) [VC-LC-0557] | 77.19 | 77.2 | 4.3E+07 | 0.11 | 142.5 | -6.12 | 
17 | CCCCCCCCCCCCCCCCCC(=O)NC(CCSCCC(=O)OCCCCCCCCCCCCC)C(=O)NCCCN1CCOCC1 (centres unmarked) [VC-LC-0374] | 70.37 |  |  | 0.16 | 174.7 | -9.62 | good transfection results
18 | CCCCCCCCCCCCCCCCCCCCCCOC(=O)CCSCC(CC(=O)NCCCN1CCOCC1)C(=O)OC(CCCCCCCC)CCCCCCCC (centres unmarked) [VC-LC-0549] | 36.38 | 36.38 | 2.5E+07 | 0.27 | 194.9 | -16.95 | 
